Measured values reported in paper PMC3062907 (Advanced synthesis & catalysis, 2008).

Columns and labels:
Hsp90 = Hsp90 inhibition; type: biochemical; settings: read-out: Hsp90 inhibition (IC50); in vitro; preliminary evaluation
[1] = in vivo settings; earlier work of the authors, no reference given; cited from earlier work
[2] = ref ix; cited from earlier work
[3] = test system: Rb (retinoblastoma)-negative cells; settings: cells resistant to 17-AAG; ref x; cited from earlier work
[4] = test system: human colon carcinoma (HCT-116); assay: In vivo study in mice implanted with human colon carcinoma; settings: mice implanted with HCT-116; 75 mg/kg, QDx7; preliminary
[5] = test system: MCF-7 breast cancer cells; settings: read-out: inhibitory activity against MCF-7 breast cancer cells (IC50); ref xiii; cited from earlier work

Row | SMILES | IC50 (Hsp90) | in vivo activity [1] | hepatotoxicity compared with 17-AAG [2] | cytotoxicity against Rb-negative cells [3] | tumor cell growth suppression [4] | IC50 [5]
2 | C[C@@H]1C[C@H]2O[C@@H]2/C=C\C=C\C(=O)Cc2c(Cl)c(O)cc(O)c2C(=O)O1 [Radicicol (1), radicicol] |  | inactive | significantly less hepatotoxic than 17-AAG (3) | potent cytotoxicity |  | 
3 | C[C@@H]1C[C@H]2C[C@@H]2/C=C\C=C\C(=O)Cc2c(Cl)c(O)cc(O)c2C(=O)O1 [cycloproparadicicol (4), cycloproparadicicol] | 160 nM |  |  |  | 68% | 49 nM
